Assay results as given in patent US5635593A (priority 1995, dated 1997).
Peptide text beside a SMILES is read from it.

Key:
[1] = target: T1, BK2 -receptor (Rattus norvegicus, UniProt P25023); experiment: rat uterus (RU) in vitro, antagonism of BK; conditions: percentage recovery after washing
T1 construct: guinea-pig ileum (GPI), rat uterus (RU) and rabbit jugular vein (RJV); from tissue; host or cells: rat uterus
T1 sequence (P25023 1-396): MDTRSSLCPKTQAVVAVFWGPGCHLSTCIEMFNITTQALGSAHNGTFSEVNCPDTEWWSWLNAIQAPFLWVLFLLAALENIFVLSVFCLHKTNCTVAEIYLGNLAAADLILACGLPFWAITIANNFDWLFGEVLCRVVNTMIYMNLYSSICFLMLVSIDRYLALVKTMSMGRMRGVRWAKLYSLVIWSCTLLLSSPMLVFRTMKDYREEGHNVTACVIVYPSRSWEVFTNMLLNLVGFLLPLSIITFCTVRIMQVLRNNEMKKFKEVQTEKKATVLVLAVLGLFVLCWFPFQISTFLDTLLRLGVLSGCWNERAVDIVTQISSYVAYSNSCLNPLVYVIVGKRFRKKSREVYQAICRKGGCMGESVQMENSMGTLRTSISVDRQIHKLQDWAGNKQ

[2] = target: T2, BK2 receptor (Cavia porcellus, UniProt O70526); experiment: guinea-pig ileum (GPI) in vitro, antagonism of BK
T2 construct: tested for activity on guinea pig ileum in vitro on the standard tissue bath/strain gauge system; from tissue; host or cells: guinea pig ileum
T2 sequence (O70526 1-372): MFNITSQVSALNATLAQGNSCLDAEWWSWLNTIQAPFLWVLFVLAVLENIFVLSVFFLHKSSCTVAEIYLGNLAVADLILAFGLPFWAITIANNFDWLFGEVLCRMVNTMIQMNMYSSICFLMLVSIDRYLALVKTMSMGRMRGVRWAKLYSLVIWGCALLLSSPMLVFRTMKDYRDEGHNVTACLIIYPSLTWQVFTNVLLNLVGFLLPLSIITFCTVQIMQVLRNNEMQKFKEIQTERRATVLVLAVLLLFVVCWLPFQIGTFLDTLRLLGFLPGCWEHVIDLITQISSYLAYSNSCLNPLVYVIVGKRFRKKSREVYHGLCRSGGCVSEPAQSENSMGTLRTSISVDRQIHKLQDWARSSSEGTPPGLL
Experimental: (§1) Thus, in vitro studies were performed on standard assay systems, namely, guinea-pig ileum (GPI), rat uterus (RU) and rabbit jugular vein (RJV). […] The potency of each compound was assessed as a pA2 value according to the method of Arunlakshana & Schild, Br. J. Pharmacol. Chemother., 14:48-58 (1959). The pA2 can be defined as the negative logarithm of the molar concentration of the antagonist in the presence of which the potency of the agonist is reduced two-fold, i.e., twice the amount of agonist is required to produce a given response in the presence of, than in the absence of, the antagonist. A high potency of antagonism is indicated by a high pA2 value. i.e., a low concentration of antagonist is effective.
The percentage recovery (% Rec) was also determined for compounds with respect to each assay.
The Cys-modified monomers and the resultant dimers were tested for activity on guinea pig ileum in vitro on the standard tissue bath/strain gauge system as before.

[3] = target: T3, BK2 receptor (Oryctolagus cuniculus, UniProt Q28642); experiment: rabbit jugular vein (RJV) in vitro, antagonism of BK; conditions: percentage recovery after washing
T3 construct: from tissue; host or cells: whole animal (rabbit, LPS-pretreated), blood pressure response
T3 sequence (Q28642 1-367): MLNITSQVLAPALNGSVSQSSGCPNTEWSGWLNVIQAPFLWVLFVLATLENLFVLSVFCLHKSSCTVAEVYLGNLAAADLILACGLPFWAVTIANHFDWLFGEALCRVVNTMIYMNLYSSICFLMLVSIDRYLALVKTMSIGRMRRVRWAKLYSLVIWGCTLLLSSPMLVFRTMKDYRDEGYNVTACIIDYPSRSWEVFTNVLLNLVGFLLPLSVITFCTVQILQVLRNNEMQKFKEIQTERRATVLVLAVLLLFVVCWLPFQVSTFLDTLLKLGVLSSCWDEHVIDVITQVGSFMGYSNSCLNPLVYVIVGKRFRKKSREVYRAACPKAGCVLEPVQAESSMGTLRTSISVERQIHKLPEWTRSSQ
Experimental: as §1
The percentage recovery (% Rec) was also determined for compounds with respect to each assay. Percentage recovery is a measure of the duration of action, the lower the percentage recovery value, the greater the duration of action of the compound.

[4] = test system: blood pressure responses to BK; format: in vivo; conditions: anaesthetized rat, dose response curve n=10

SMILES	% REC rat uterus [1]	Kb ([2]; against BK, read-out: pA2 guinea pig ileum (converted))	% REC RJV [3]	pA2 guinea pig ileum ([2]; against BK)	% REC GPI ([2]; percentage recovery after washing)	ED50 of BK, blood pressure [4]
CC(C)C[C@H](NC(=O)[C@@H](Cc1ccccc1)NC(=O)[C@H](CO)NC(=O)[C@H](Cc1ccccc1)NC(=O)CNC(=O)[C@@H]1C[C@@H](O)CN1C(=O)[C@@H]1CCCN1C(=O)[C@H](CCCNC(=N)N)NC(=O)[C@H](N)CSC1CC(=O)N(CCCCCCN2C(=O)CC(SC[C@@H](N)C(=O)N[C@@H](CCCNC(=N)N)C(=O)N3CCC[C@H]3C(=O)N3C[C@H](O)C[C@H]3C(=O)NCC(=O)N[C@@H](Cc3ccccc3)C(=O)N[C@@H](CO)C(=O)N[C@H](Cc3ccccc3)C(=O)N[C@@H](CC(C)C)C(=O)N[C@@H](CCCNC(=N)N)C(=O)O)C2=O)C1=O)C(=O)N[C@@H](CCCNC(=N)N)C(=O)O (stereo partly shown) [CP-0161] (HELM PEPTIDE1{[dC].R.P.[Hyp].G.F.S.[dF].L.R}|PEPTIDE2{[dC].R.P.[Hyp].G.F.S.[dF].L.R}|CHEM1{[O=C1CC([*:1])C(=O)N1CCCCCCN1C(=O)CC([*:2])C1=O]}$PEPTIDE1,CHEM1,1:R3-1:R1|PEPTIDE2,CHEM1,1:R3-1:R2$$$V2.0)	100%	316 nM	–	–	–	–
CC(C)C[C@H](NC(=O)[C@@H](Cc1ccccc1)NC(=O)[C@H](CSC1CC(=O)N(CCCCCCN2C(=O)CC(SC[C@H](NC(=O)[C@H](Cc3ccccc3)NC(=O)CNC(=O)[C@@H]3C[C@@H](O)CN3C(=O)[C@@H]3CCCN3C(=O)[C@H](CCCNC(=N)N)NC(=O)[C@H](N)CCCNC(=N)N)C(=O)N[C@H](Cc3ccccc3)C(=O)N[C@@H](CC(C)C)C(=O)N[C@@H](CCCNC(=N)N)C(=O)O)C2=O)C1=O)NC(=O)[C@H](Cc1ccccc1)NC(=O)CNC(=O)[C@@H]1C[C@@H](O)CN1C(=O)[C@@H]1CCCN1C(=O)[C@H](CCCNC(=N)N)NC(=O)[C@H](N)CCCNC(=N)N)C(=O)N[C@@H](CCCNC(=N)N)C(=O)O (stereo partly shown) [CP-0127] (HELM PEPTIDE1{[dR].R.P.[Hyp].G.F.C.[dF].L.R}|PEPTIDE2{[dR].R.P.[Hyp].G.F.C.[dF].L.R}|CHEM1{[O=C1CC([*:1])C(=O)N1CCCCCCN1C(=O)CC([*:2])C1=O]}$PEPTIDE1,CHEM1,7:R3-1:R1|PEPTIDE2,CHEM1,7:R3-1:R2$$$V2.0)	50%	–	10%	7.7	100%	–
NC(N)=NCCC[C@H](NC(=O)[C@H](Cc1ccccc1)NC(=O)[C@@H]1CCCN1C(=O)[C@H](CO)NC(=O)[C@H](Cc1ccccc1)NC(=O)CNC(=O)[C@@H]1CCCN1C(=O)[C@@H]1CCCN1C(=O)[C@@H](N)CCCN=C(N)N)C(=O)O [BK, Arg^1 -Pro^2 -Pro^3 -Gly^4 -Phe^5 -Ser^6 -Pro^7 -Phe^8 -Arg^9] (H-RPPGFSPFR-OH)	–	–	–	–	–	0.4 nmol
